Test results published in patent US20180319766A1, “CO-CRYSTALS OF BENZIMIDAZOLE COMPOUNDS” (FAES FARMA, S.A., priority 2015, published 2018).

Assays:
[1] = Stability of the cocrystal under forced conditions of humidity and temperature (ICH), XRPD; format: physicochemical; conditions: 40° C.
Experimental: […] The solids were analyzed by XRPD every day during the first week and once a week afterwards, to detect possible crystalline transformations.

[2] = ΔpKa bilastine-coformer; format: physicochemical
[3] = Solubility of cocrystals in water at room temperature, relative to bilastine (HPLC); conditions: 400 mg of product in 24 ml, result in words, data only in figures
[4] = bilastine as zwitterion; cited from earlier work
[5] = pH range 5-8; cited from earlier work

SMILES | Time the crystalline form is stable under forced conditions (XRPD) ([1]; 75±5% RH) | Time the crystalline form is stable under forced conditions (XRPD) ([1]; 70±5% RH) | further results
CCOCCn1c(C2CCN(CCc3ccc(C(C)(C)C(=O)O)cc3)CC2)nc2ccccc21.Nc1ccc(C(=O)O)cc1 [AB(VII)] | at least 1 week | – | –
CCOCCn1c(C2CCN(CCc3ccc(C(C)(C)C(=O)O)cc3)CC2)nc2ccccc21.CCOCCn1c(C2CCN(CCc3ccc(C(C)(C)C(=O)O)cc3)CC2)nc2ccccc21.Nc1ccc(C(=O)O)cc1 [AB(VIII)] | at least 1 week | – | –
CCOCCn1c(C2CCN(CCc3ccc(C(C)(C)C(=O)O)cc3)CC2)nc2ccccc21.O=C(O)CCCCC(=O)O [AD(I)] | – | at least 1 weeks | –
CCOCCn1c(C2CCN(CCc3ccc(C(C)(C)C(=O)O)cc3)CC2)nc2ccccc21.CCOCCn1c(C2CCN(CCc3ccc(C(C)(C)C(=O)O)cc3)CC2)nc2ccccc21.O=C(O)CCCCC(=O)O [AD(III)] | – | at least 1 weeks | –
CCOCCn1c(C2CCN(CCc3ccc(C(C)(C)C(=O)O)cc3)CC2)nc2ccccc21.CCOCCn1c(C2CCN(CCc3ccc(C(C)(C)C(=O)O)cc3)CC2)nc2ccccc21.O=C(O)CCCC(=O)O [GL(I)] | – | at least 4 weeks | –
CCOCCn1c(C2CCN(CCc3ccc(C(C)(C)C(=O)O)cc3)CC2)nc2ccccc21.O=C(O)CCCC(=O)O [GL(V)] | – | at least 4 weeks | –
O=C(O)C[C@H](O)C(=O)O [L-Malic acid] | – | – | ΔpKa bilastine-coformer [2]: 0.94
CC=CC=CC(=O)O.CCOCCn1c(C2CCN(CCc3ccc(C(C)(C)C(=O)O)cc3)CC2)nc2ccccc21.CCOCCn1c(C2CCN(CCc3ccc(C(C)(C)C(=O)O)cc3)CC2)nc2ccccc21 [SO(I)] | at least 1 week | – | Solubility comparison with bilastine BLN(I) [3]: improves greatly the solubility of bilastine
CCOCCn1c(C2CCN(CCc3ccc(C(C)(C)C(=O)O)cc3)CC2)nc2ccccc21.O=C(O)CCC(=O)O [SU(VI)] | at least 1 week | – | –
CCOCCn1c(C2CCN(CCc3ccc(C(C)(C)C(=O)O)cc3)CC2)nc2ccccc21.CCOCCn1c(C2CCN(CCc3ccc(C(C)(C)C(=O)O)cc3)CC2)nc2ccccc21.O=C(O)CCC(=O)O [SU(VII)] | at least 1 week | – | –
CCOCCn1c(C2CCN(CCc3ccc(C(C)(C)C(=O)O)cc3)CC2)nc2ccccc21 [bilastine, 2-[4-(2-{4-[1-(2-Ethoxyethyl)-1H-benzimidazol-2-yl]-1-piperidinyl}ethyl)phenyl]-2-methylpropanoic acid] | – | – | pKa of the acid function (carboxylate) [4]: 4.4; pKa of the base function (protonated amine) [4]: 8.8; Solubility [5]: around 500 μg/mL
